Measurements reported in patent US20230278972A1, “SUBSTITUTED HALOALKYL SULFONANILIDE HERBICIDES” (FMC Corporation, priority 2020, published 2023).

How the values were obtained:
Assay type in all cases: in vivo
kochia (Bassia scoparia) [1] = assay: Test A preemergence, kochia; conditions: Preemergence; for Kochia plant response rating: 125 g ai/ha, visual injury on 0 to 100 scale (0 no effect, 100 complete control), approximately 10 days; for Plant response rating, Kochia: 500 g ai/ha, 0 to 100 scale (0 no effect, 100 complete control)
Outline: (§1)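 Seeds are sown in loam mixed with sand and sprayed on the soil surface right after planting for the preemergence test. Postemergence pots are sprayed once seedlings reach 2 to 10 cm at the one- to two-leaf stage. The same surfactant-containing, non-phytotoxic solvent formulation serves both.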

kochia (Bassia scoparia) [2] = assay: Test A postemergence, kochia; conditions: Postemergence, 0 to 100 scale (0 no effect, 100 complete control); for Plant response rating, Kochia: 125 g ai/ha, visual injury approx. 10 days; for Kochia plant response rating: 500 g ai/ha, visual injury vs untreated controls after approx. 10 days
Outline: as §1

[3] = test system: blackgrass (Alopecurus myosuroides); assay: Test A postemergence, blackgrass; conditions: Postemergence, 0 to 100 scale (0 no effect, 100 complete control); for Plant response rating, Blackgrass: 125 g ai/ha, visual injury approx. 10 days; for Blackgrass plant response rating: 500 g ai/ha, visual injury vs untreated controls after approx. 10 days
Outline: as §1

[4] = test system: wheat (Triticum aestivum); assay: Test A postemergence, wheat; conditions: Postemergence, 0 to 100 scale (0 no effect, 100 complete control); for Plant response rating, Wheat: 125 g ai/ha, visual injury approx. 10 days; for Wheat plant response rating: 500 g ai/ha, visual injury vs untreated controls after approx. 10 days
Outline: (§2)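 Pots: loam soil/sand blend. Pre: directed soil spray at planting. Post: plants 2–10 cm, 1–2 leaf stage. Formulation: non-phytotoxic solvent + surfactant.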

[5] = test system: pigweed (Amaranthus retroflexus); assay: Test A postemergence, pigweed; conditions: Postemergence, 0 to 100 scale (0 no effect, 100 complete control); for Plant response rating, Pigweed: 125 g ai/ha, visual injury approx. 10 days; for Pigweed plant response rating: 500 g ai/ha, visual injury vs untreated controls after approx. 10 days
Outline: as §1

[6] = test system: Foxtail, Giant (giant foxtail, Setaria faberi); assay: Test A preemergence, Foxtail, Giant; conditions: Preemergence; for Foxtail, Giant plant response rating: 125 g ai/ha, visual injury on 0 to 100 scale (0 no effect, 100 complete control), approximately 10 days; for Plant response rating, Foxtail, Giant: 500 g ai/ha, 0 to 100 scale (0 no effect, 100 complete control)
Outline: as §1

[7] = test system: Foxtail, Giant (giant foxtail, Setaria faberi); assay: Test A postemergence, Foxtail, Giant; conditions: Postemergence, 0 to 100 scale (0 no effect, 100 complete control); for Plant response rating, Foxtail, Giant: 125 g ai/ha, visual injury approx. 10 days; for Foxtail, Giant plant response rating: 500 g ai/ha, visual injury vs untreated controls after approx. 10 days
Outline: as §1

[8] = test system: pigweed (Amaranthus retroflexus); assay: Test A preemergence, pigweed; conditions: for Pigweed plant response rating: 125 g ai/ha, visual injury on 0 to 100 scale (0 no effect, 100 complete control), approximately 10 days; for Plant response rating, Pigweed: 500 g ai/ha, 0 to 100 scale (0 no effect, 100 complete control)
Outline: as §2

[9] = test system: ragweed (common ragweed, Ambrosia artemisiifolia); assay: Test A preemergence, ragweed; conditions: Preemergence; for Ragweed plant response rating: 125 g ai/ha, visual injury on 0 to 100 scale (0 no effect, 100 complete control), approximately 10 days; for Plant response rating, Ragweed: 500 g ai/ha, 0 to 100 scale (0 no effect, 100 complete control)
Outline: as §1

[10] = test system: ragweed (common ragweed, Ambrosia artemisiifolia); assay: Test A postemergence, ragweed; conditions: Postemergence, 0 to 100 scale (0 no effect, 100 complete control); for Plant response rating, Ragweed: 125 g ai/ha, visual injury approx. 10 days; for Ragweed plant response rating: 500 g ai/ha, visual injury vs untreated controls after approx. 10 days
Outline: as §1

[11] = test system: barnyardgrass (Echinochloa crus-galli); assay: Test A postemergence, barnyardgrass; conditions: Postemergence, 0 to 100 scale (0 no effect, 100 complete control); for Plant response rating, Barnyardgrass: 125 g ai/ha, visual injury approx. 10 days; for Barnyardgrass plant response rating: 500 g ai/ha, visual injury vs untreated controls after approx. 10 days
Outline: as §2

[12] = test system: galium (catchweed bedstraw, Galium aparine); assay: Test A postemergence, galium; conditions: Postemergence, 0 to 100 scale (0 no effect, 100 complete control); for Plant response rating, Galium: 125 g ai/ha, visual injury approx. 10 days; for Galium plant response rating: 500 g ai/ha, visual injury vs untreated controls after approx. 10 days
Outline: as §2

[13] = test system: Ryegrass, Italian (Italian ryegrass, Lolium multiflorum); assay: Test A preemergence, Ryegrass, Italian; conditions: Preemergence; for Ryegrass, Italian plant response rating: 125 g ai/ha, visual injury on 0 to 100 scale (0 no effect, 100 complete control), approximately 10 days; for Plant response rating, Ryegrass, Italian: 500 g ai/ha, 0 to 100 scale (0 no effect, 100 complete control)
Outline: as §1

[14] = test system: Ryegrass, Italian (Italian ryegrass, Lolium multiflorum); assay: Test A postemergence, Ryegrass, Italian; conditions: Postemergence, 0 to 100 scale (0 no effect, 100 complete control); for Plant response rating, Ryegrass, Italian: 125 g ai/ha, visual injury approx. 10 days; for Ryegrass, Italian plant response rating: 500 g ai/ha, visual injury vs untreated controls after approx. 10 days
Outline: as §1

[15] = test system: barnyardgrass (Echinochloa crus-galli); assay: Test A preemergence, barnyardgrass; conditions: Preemergence; for Barnyardgrass plant response rating: 125 g ai/ha, visual injury on 0 to 100 scale (0 no effect, 100 complete control), approximately 10 days; for Plant response rating, Barnyardgrass: 500 g ai/ha, 0 to 100 scale (0 no effect, 100 complete control)
Outline: as §1

corn (Zea mays) = assay: Test A postemergence, corn; conditions: Postemergence, 0 to 100 scale (0 no effect, 100 complete control); for Plant response rating, Corn: 125 g ai/ha, visual injury approx. 10 days; for Corn plant response rating: 500 g ai/ha, visual injury vs untreated controls after approx. 10 days
Outline: as §1

| SMILES | Kochia plant response rating (kochia (Bassia scoparia) [1]) | Plant response rating, Kochia (kochia (Bassia scoparia) [1]) | Plant response rating, Kochia (kochia (Bassia scoparia) [2]) | Kochia plant response rating (kochia (Bassia scoparia) [2]) | Plant response rating, Blackgrass [3] | Blackgrass plant response rating [3] | Plant response rating, Wheat [4] | Wheat plant response rating [4] | Pigweed plant response rating [5] | Plant response rating, Foxtail, Giant [6] | Foxtail, Giant plant response rating [7] | Plant response rating, Pigweed [8] | Plant response rating, Ragweed [9] | Ragweed plant response rating [10] | Barnyardgrass plant response rating [11] | Galium plant response rating [12] | Plant response rating, Ryegrass, Italian [13] | Ryegrass, Italian plant response rating [14] | Plant response rating, Barnyardgrass [15] | Corn plant response rating (corn (Zea mays)) | further results |
| --- | --- | --- | --- | --- | --- | --- | --- | --- | --- | --- | --- | --- | --- | --- | --- | --- | --- | --- | --- | --- | --- |
| Cc1cc(C)c(-c2ccnn(C)c2=O)cc1NS(=O)(=O)C(F)(F)F [Compound 80] | 80 | 80 | 40 | 70 | 60 | 100 | 60 | 80 | 70 | 100 | 90 | 90 | 90 | 90 | 90 | 90 | 90 | 80 | 90 | 80 | Plant response rating, Pigweed [5]: 70; Foxtail, Giant plant response rating [6]: 90; Plant response rating, Foxtail, Giant [7]: 90; Pigweed plant response rating [8]: 60; Ragweed plant response rating [9]: 70; Plant response rating, Ragweed [10]: 90; Plant response rating, Barnyardgrass [11]: 70; Plant response rating, Galium [12]: 90; Ryegrass, Italian plant response rating [13]: 90; Plant response rating, Ryegrass, Italian [14]: 70; Barnyardgrass plant response rating [15]: 90; Plant response rating, Corn (corn (Zea mays)): 20 |
| COc1cc(C)c(NS(=O)(=O)C(F)(F)F)cc1-c1ccnn(C)c1=O [Compound 81] | 0 | 80 | 40 | 50 | 0 | 70 | 40 | 60 | 60 | 100 | 90 | 100 | 40 | 60 | 80 | 90 | 50 | 60 | 90 | 20 | Plant response rating, Pigweed [5]: 20; Foxtail, Giant plant response rating [6]: 100; Plant response rating, Foxtail, Giant [7]: 90; Pigweed plant response rating [8]: 30; Ragweed plant response rating [9]: 30; Plant response rating, Ragweed [10]: 20; Plant response rating, Barnyardgrass [11]: 70; Plant response rating, Galium [12]: 80; Ryegrass, Italian plant response rating [13]: 30; Plant response rating, Ryegrass, Italian [14]: 0; Barnyardgrass plant response rating [15]: 90; Plant response rating, Corn (corn (Zea mays)): 0 |
| Cc1cc(C)c(-n2nccc(Cl)c2=O)cc1NS(=O)(=O)C(F)(F)F [Compound 82] | 70 | 90 | 0 | 0 | 0 | 0 | 0 | 0 | 40 | 60 | 50 | 80 | 20 | 30 | 20 | 10 | 40 | 0 | 80 | 40 | Plant response rating, Pigweed [5]: 0; Foxtail, Giant plant response rating [6]: 0; Plant response rating, Foxtail, Giant [7]: 20; Pigweed plant response rating [8]: 90; Ragweed plant response rating [9]: 0; Plant response rating, Ragweed [10]: 0; Plant response rating, Barnyardgrass [11]: 60; Plant response rating, Galium [12]: 20; Ryegrass, Italian plant response rating [13]: 20; Plant response rating, Ryegrass, Italian [14]: 0; Barnyardgrass plant response rating [15]: 40; Plant response rating, Corn (corn (Zea mays)): 0 |
| Cc1cc(C)c(-n2ncccc2=O)cc1NS(=O)(=O)C(F)(F)F [Compound 83] | 60 | 70 | 0 | 20 | 0 | 0 | 0 | 0 | 50 | 80 | 40 | 90 | 20 | 60 | 70 | 80 | 50 | 0 | 80 | 30 | Plant response rating, Pigweed [5]: 40; Foxtail, Giant plant response rating [6]: 10; Plant response rating, Foxtail, Giant [7]: 0; Pigweed plant response rating [8]: 50; Ragweed plant response rating [9]: 0; Plant response rating, Ragweed [10]: 10; Plant response rating, Barnyardgrass [11]: 20; Plant response rating, Galium [12]: 60; Ryegrass, Italian plant response rating [13]: 30; Plant response rating, Ryegrass, Italian [14]: 0; Barnyardgrass plant response rating [15]: 70; Plant response rating, Corn (corn (Zea mays)): 0 |
| Cc1cc(C)c(-n2nccc(C)c2=O)cc1NS(=O)(=O)C(F)(F)F [Compound 84] | – | 70 | – | 0 | – | 20 | – | 70 | 30 | 90 | 50 | 70 | 0 | 40 | 80 | 50 | 90 | 50 | 80 | 60 | – |
| Cc1ccc(=O)n(-c2cc(NS(=O)(=O)C(F)(F)F)c(C)cc2C)n1 [Compound 85] | 60 | 70 | 0 | 0 | 0 | 0 | 0 | 0 | 40 | 90 | 0 | 100 | 0 | 30 | 20 | 0 | 30 | 30 | 70 | 0 | Plant response rating, Pigweed [5]: 20; Foxtail, Giant plant response rating [6]: 10; Plant response rating, Foxtail, Giant [7]: 0; Pigweed plant response rating [8]: 100; Ragweed plant response rating [9]: 0; Plant response rating, Ragweed [10]: 20; Plant response rating, Barnyardgrass [11]: 30; Plant response rating, Galium [12]: 60; Ryegrass, Italian plant response rating [13]: 0; Plant response rating, Ryegrass, Italian [14]: 40; Barnyardgrass plant response rating [15]: 70; Plant response rating, Corn (corn (Zea mays)): 0 |
